# Source: patent publication US8765683B2, “T-140 peptide analogs having CXCR4 super-agonist activity for cancer therapy” (Biokine Therapeutics Ltd., priority 2006, dated 2014)
# Bridge positions count the residues as written; N and C are the ends. Square brackets hold non-standard residues; d marks the D form. Peptide text beside a SMILES is read from it. * marks the point of attachment. 2Nal = N[C@@H](Cc1ccc2ccccc2c1)C(=O)O; Benzoyl(4-F) = O=C(c1ccc(F)cc1)*; Cit = NC(=O)NCCC[C@H](N)C(=O)O
# How the values were obtained:
# PC3-CXCR4.5 cells [1] = experiment: MIP3α secretion by PC3-CXCR4.5 cells (ELISA); format: cell-based
# Method: (§1) In this example, regulation of the chemokine MIP3α (macrophage inflammatory protein 3α) was examined. […] In FIG. 1B, PC3 (left panel) and PC3-CXCR4.5 (right panel) cells were stimulated with the indicated concentrations of CXCL12 for 48 hours and MIP3α secretion was assessed by ELISA. The results represent the average of triplicates±STDEV.
# (§2) The effects of the CXCR4 antagonist AMD3100 and of 4F-benzoyl-TN14003 (4FB-TN14003), hitherto known as a CXCR4 antagonist, on MIP3α secretion were further tested. […] In FIG. 1C, CXCR4 signaling in PC3 (left panel) and PC3-CXCR4.5 (right panel) cells was inhibited with anti-CXCL12 antibodies (αCXCL12) and Pertussis toxin (PTX) treatments alone or in combination with CXCL12, as indicated. Secretion of MIP3α was assessed by ELISA. The results represent the average of triplicates±STDEV.
# [2] = system: human primary keratinocytes; experiment: Proliferation and survival of keratinocytes; format: cell-based; conditions: AMD-3100 20 μM; 4F-benzoyl-TN14003 4-20 μM
# Method: (§3) The effect of CXCR4 antagonists on the survival of freshly isolated normal CD4^+ T cells, CD34^+ stem cells and keratinocytes was examined. The proliferation and survival of keratinocytes was not inhibited by CXCR4 antagonists AMD-3100 (20 μM) and 4F-benzoyl-TN14003 (4-20 μM) or the natural ligand CXCL12 (FIG. 2C). The proliferation and survival of CD4^+ T cells was not inhibited by CXCR4 antagonists AMD-3100 (20 μM).
# human CD4+ T cells = experiment: Proliferation and survival of CD4+ T cells; format: cell-based; conditions: AMD-3100 20 μM; 4F-benzoyl-TN14003 4-20 μM
# Method: as §3
# PC3 cells [3] = experiment: Proliferation of PC3 prostate tumor cells; format: cell-based
# Method: (§4) Next, the effect of the CXCR4 modulators on PC3 and PC3-CXCR4.5 prostate tumor cells was tested. […] The proliferation induced by 4F-benzoyl-TN14003 was dose-dependent (FIG. 3B).
# PC3-CXCR4.5 cells [4] = experiment: Proliferation of PC3-CXCR4.5 prostate tumor cells; format: cell-based
# Method: as §4
# SKBR3 = experiment: Proliferation of SKBR3 breast carcinoma cells; format: cell-based
# 22Rv1 = experiment: Proliferation of 22Rv1 prostate carcinoma cells; format: cell-based
# U-87 = experiment: Proliferation of U-87 glioblastoma cells; format: cell-based
# K562 cells = experiment: Proliferation and apoptosis (Annexin V) of CML K562 cells; format: cell-based, human; conditions: K562 (low CXCR4); 4F-benzoyl-TN14003 4-20 μM
# Source text: (§5) The proliferation and survival of the CML K562 cells or K562 cells that over-express CXCR4 (indicated “CXCR4 high” or “K562-CXCR4”) was first studied.
# K562-CXCR4 = experiment: Proliferation and apoptosis (Annexin V) of K562 cells over-expressing CXCR4; format: cell-based, human; conditions: K562 high CXCR4; 4F-benzoyl-TN14003 4-20 μM
# Source text: as §5
# HL-60 cells = experiment: Proliferation and apoptosis (Annexin V) of HL-60 cells; format: cell-based, human
# NB4 cells = experiment: Proliferation of NB4 AML cells; format: cell-based, human
# ARH77 = experiment: Proliferation and apoptosis (annexin) of ARH77 MM cells; format: cell-based, human; conditions: 4F-benzoyl-TN14003 0.4-40 μM
# U266 = experiment: Proliferation and apoptosis (annexin) of U266 MM cells; format: cell-based, human; conditions: 4F-benzoyl-TN14003 0.4-40 μM
# NCI human MM cells = experiment: Proliferation and apoptosis (annexin) of NCI MM cells; format: cell-based; conditions: 4F-benzoyl-TN14003 0.4-40 μM
# Jurkat cells = experiment: Migration of Jurkat cells in response to CXCL12; format: cell-based, human; conditions: CXCL12 50 ng/ml; peptide incubated with Proteinase K
# Source text: AMD3100 was purchased from Sigma, Israel.
# [5] = system: BM derived CD138+ MM cells; experiment: Survival and apoptosis of BM derived cells of MM patients; format: cell-based, human
# BM derived CD34+ cells = experiment: Survival of CD34+ cells in BM samples of MM patients; format: cell-based, human; conditions: 8 μM, 24 hr
# U87 glioma cells = experiment: Survival and death of U87 glioma cells (Annexin V); format: cell-based
# Method: U87 cells were treated with 4F-benzoyl-TN14003 and tested for their survival (FIG. 15A) and death (FIG. 15B).
# human NB4 leukemic cells = experiment: NB4 leukemic xenograft model; format: in vivo, nude mice
# Method: Acute promyelocytic leukemia (APL)-derived NB4 cell is extensively used as an in vitro and in vivo model system for studying human leukemia. To investigate the therapeutic anti-tumor potential of the CXCR4 antagonist 4F-benzoyl-TN14003 against human leukemic cells, 10×10^6 NB4 cells were injected subcutaneously (s.c) into immunodeficient nude mice (n=5). After 14 days, tumors were established at the size of 0.4 cm^2, and mice were divided into 4F-benzoyl-TN14003-treated (8 mg/Kg, open squares) and PBS-treated (control, full diamonds) groups. The 4F-benzoyl-TN14003 drug solution was administered intraperitoneal (i.p) each day for 5 days, followed by 2 days without drug, and then 4 additional daily injections (total of 9 injections, FIG. 16).
# To further test the effect of 4F-benzoyl-TN14003 against human leukemic cells, 5×10^6 NB4 cells were injected subcutaneously (s.c) into immunodeficient nude mice (n=5). After 14 days, tumors were very small, at the size of 0.02 cm^2, and mice were divided into 4F-benzoyl-TN14003-treated (open squares) and PBS-treated (control, full diamonds) groups. The 4F-benzoyl-TN14003 drug solution was administered subcutaneously (8 mg/Kg) each day for 4 days (total of 4 injections, FIG. 17A). On day 20, all control mice developed tumors (0.49±0.1 cm^2), whereas in the treated mouse group, only 1 mouse developed a small tumor.
# On day 31, all control mice developed big tumors in size (FIG. 17A) and weight (FIG. 17B), whereas in the treated group, 4/5 mice developed smaller tumors in size and weight.
# K562L cells = experiment: K562L (luciferase) CML model, CCCD camera; format: in vivo, NOD/SCID mice
# Method: In order to monitor the progression and localization of leukemic cells in vivo, the human CML tumor cell lines K562 (K562L) was stably transduced with a retrovirus carrying the luciferase gene. This cell line was injected IP into NOD/SCID mice (2.5×10^5, 5×10^5, 10^6, 2×10^6 per mouse; FIGS. 18 A-D, respectively) that were pretreated with a sub-lethal dose of radiation in order to diminish any natural killer cell activity and enhance acceptance of the tumor cells. Twenty-four hr after injection of the cells, the light generated internally by the luciferase expressed in the tumor cells and then transmitted through the animal's tissues was monitored externally using a cooled charge-coupled device camera (CCCD). The substrate luciferin was provided exogenously via IP injection. […] Quantitation was achieved by integrating the signal intensity using the Metaview software.
# Two therapeutic approaches were studied using this model. […] In addition, the effect of 4F-benzoyl-TN14003 on the growth of cells in vivo was investigated.
# Further, the effect of 4F-benzoyl-TN14003 on K562L tumor development was studied. 4F-benzoyl-TN14003 was injected i.p into NOD/SCID mice in the amount of 4 mg/Kg per mouse/per injection. The first injection of 4F-benzoyl-TN14003 was given immediately after the injection of K562-luc cells in an opposite route of injection on the peritoneum. Further injections of 4F-benzoyl-TN14003 were given every three days. Mice were monitored under the CCCD camera, 24 hr after each injection at serial time points, every three days.
# 4F-benzoyl-TN14003 was injected i.p into NOD/SCID mice in the amount of 2 mg/Kg whereas AMD-3100 was injected 4 mg/Kg per mouse/per injection. The first injection was given 2 days after the injection of K562-luc cells. Further injections were given on days 5, 7 and 11. Mice (n=3) were monitored under the CCCD camera on day 17 after injection of cells.
# [6] = system: human CD34+ hematopoietic stem cells; conditions: AMD-3100 20 μM
# PC3 cells [7] = experiment: MIP3α secretion by PC3 cells (ELISA); format: cell-based
# Method: as §1, §2
compound,measurement,setting,value
"N=C(N)NCCC[C@H](NC(=O)[C@@H]1CSSC[C@H](NC(=O)[C@H](Cc2ccc3ccccc3c2)NC(=O)[C@H](CCCNC(=N)N)NC(=O)[C@H](CCCNC(=N)N)NC(=O)c2ccc(F)cc2)C(=O)N[C@@H](Cc2ccc(O)cc2)C(=O)N[C@@H](CCCNC(N)=O)C(=O)N[C@@H](CCCCN)C(=O)N[C@H](CCCCN)C(=O)N2CCC[C@H]2C(=O)N[C@@H](Cc2ccc(O)cc2)C(=O)N[C@@H](CCCNC(=N)N)C(=O)N[C@@H](CCCNC(N)=O)C(=O)N1)C(N)=O [4F-benzoyl-TN14003, 4F-benzoyl-Arg-Arg-Nal-Cys-Tyr-Cit-Lys-DLys-Pro-Tyr-Arg-Cit-Cys-Arg-NH2] ({Benzoyl(4-F)}-RR[2Nal]CY[Cit]K[dK]PYR[Cit]CR-NH2; disulfide 4-13)",MIP3α secretion,PC3-CXCR4.5 cells [1]; ELISA,induced in both cell lines MIP3α secretion in an agonist manner
same,proliferation and survival of keratinocytes,[2],not inhibited
same,proliferation and survival of CD4+ T cells,human CD4+ T cells,induced T cell proliferation
same,proliferation,PC3 cells [3],induced the proliferation of prostate cancer cells
same,proliferation,PC3-CXCR4.5 cells [4],induced the proliferation of prostate cancer cells
same,proliferation,SKBR3,either stimulated or not affected
same,proliferation,22Rv1,either stimulated or not affected
same,proliferation,U-87,either stimulated or not affected
same,apoptotic cell death (Annexin V assay),K562 cells,stimulated apoptotic cell death
same,growth,K562 cells,inhibited the growth
same,apoptotic cell death (Annexin V assay),K562-CXCR4,stimulated apoptotic cell death
same,growth,K562-CXCR4,inhibited the growth
same,apoptotic cell death (Annexin V assay),HL-60 cells; 4F-benzoyl-TN14003 4-20 μM,stimulate apoptotic cell death
same,growth,HL-60 cells; 4F-benzoyl-TN14003 4-20 μM,inhibit the growth
same,sensitivity of NB4 cells (inhibitory effect),NB4 cells; compared with HL-60,less sensitive
same,apoptotic cell death (annexin assay),ARH77,stimulated apoptotic cell death
same,growth,ARH77,inhibited the growth
same,apoptotic cell death (annexin assay),U266,stimulated apoptotic cell death
same,growth,U266,inhibited the growth
same,apoptotic cell death (annexin assay),NCI human MM cells,stimulated apoptotic cell death
same,growth,NCI human MM cells,inhibited the growth
same,activity on migration of Jurkat cells in response to CXCL12 after treatment of the peptide with proteinease K,Jurkat cells,abolished the activity of the peptide
same,apoptosis of CD138+ MM cells,"[5]; 8 μM, 24 hr",induced apoptosis
same,sensitivity of normal BM samples or BM samples with low percentage of MM cells,[5]; freshly isolated BM cells,not sensitive to treatment
same,sensitivity of BM derived samples with high percentage of MM,[5]; freshly isolated BM cells of MM patients,sensitive to treatment
same,percentage of CD34+ cells,BM derived CD34+ cells,remained unaffected
same,tumor cell death of glioma cells,U87 glioma cells,induce tumor cell death
same,mice that developed smaller tumors in size and weight on day 31,human NB4 leukemic cells; 8 mg/Kg s.c. each day for 4 days,4/5
same,mice that developed a tumor on day 20,"human NB4 leukemic cells; 8 mg/Kg s.c. each day for 4 days, n=5, all control mice developed tumors",1
same,tumor growth,"human NB4 leukemic cells; established tumors 0.4 cm^2, 8 mg/Kg i.p., 9 injections",tumor growth was arrested
same,inhibition in K562L tumor development,"K562L cells; 2 mg/Kg i.p. days 2, 5, 7, 11, day 17, FIG. 21",> 90%
same,inhibition in K562L tumor development over time,"K562L cells; 4 mg/Kg i.p. every three days, FIG. 20",50%
"c1cc(CN2CCCNCCNCCCNCC2)ccc1CN1CCCNCCNCCCNCC1 [AMD-3100, reference compound]",proliferation and survival of keratinocytes,[2],not inhibited
same,proliferation and survival of CD4+ T cells,human CD4+ T cells,not inhibited
same,proliferation,PC3 cells [3],induced the proliferation of prostate cancer cells
same,proliferation,PC3-CXCR4.5 cells [4],induced the proliferation of prostate cancer cells
same,proliferation,SKBR3,either stimulated or not affected
same,proliferation,22Rv1,either stimulated or not affected
same,proliferation,U-87,either stimulated or not affected
same,effect of pretreatment with AMD-3100 on the effect of 4F-benzoyl-TN14003,HL-60 cells; AMD-3100 50 μM pretreatment,abolished the effect of 4F-benzoyl-TN14003
same,effect of pretreatment with AMD-3100 on the inhibitory effect of 4F-benzoyl-TN14003,NB4 cells; NB4 cells,abolished
same,CD34+ stem cell numbers,[6],did not affect cell numbers
Cc1ccc(NC(=O)c2ccc(CN3CCN(C)CC3)cc2)cc1Nc1nccc(-c2cccnc2)n1 [STI571],tumor development of K562L cells,"K562L cells; 40 mg/Kg IP, FIG. 20",inhibit tumor development
same,signal intensities over time,"K562L cells; 40 mg/Kg, FIG. 19",significant reduction in signal intensities
"CXCL12: chemokine, CXCR4's only natural ligand",proliferation and survival of keratinocytes,[2],not inhibited
same,proliferation and survival of CD4+ T cells,human CD4+ T cells,induced T cell proliferation
same,proliferation,PC3 cells [3],induced the proliferation of prostate cancer cells
same,proliferation,PC3-CXCR4.5 cells [4],induced the proliferation of prostate cancer cells
same,proliferation,SKBR3,either stimulated or not affected
same,proliferation,22Rv1,either stimulated or not affected
same,proliferation,U-87,either stimulated or not affected
same,CD34+ stem cell numbers,[6],did not affect cell numbers
Pertussis toxin,MIP3α secretion,PC3 cells [7],effectively inhibited the secretion of MIP3α
same,MIP3α secretion,PC3-CXCR4.5 cells [1]; ELISA,secretion of MIP3α was decreased
same,MIP3α secretion,PC3-CXCR4.5 cells [1]; PTX in combination with CXCL12,did not demonstrate an inhibitory effect
